# Test results from patent US20260184669A1, “LIPID COMPOUND AND COMPOSITION FOR DELIVERY OF ACTIVE SUBSTANCE” (KOREA RESEARCH INSTIUTE OF BIOSCIENCE AND BIOTECHNOLOGY, priority 2022, published 2026).
# How the values were obtained:
# [1] = mRNA encapsulation efficiency (Quant-IT RiboGreen RNA assay); assay type: physicochemical; conditions: mRNA encapsulation efficiency of mRNA-LNP made with the ionizable lipid; average of two measurements
# In short: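 LNP samples read with RiboGreen reagent in TE buffer with or without 2% Triton X-100 (37 °C, 10 min) to release encapsulated mRNA. Fluorescence at λex 480/λem 520 nm; EE % calculated from the two readings, averaged over two independent measurements.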
# [2] = tested on: CCL3 mRNA level in HEK-293T cells
# [3] = tested on: IL-1β mRNA level in HEK-293T cells
# [4] = tested on: IL-6 mRNA level in HEK-293T cells
compound,measurement,setting,value
"CCCCC/C=C\C/C=C\CCCCCCCCC(CCCCCCCC/C=C\C/C=C\CCCCC)OC(=O)CCCN(C)C [MC3, DLin-MC3-DMA, reference compound]",EE (%),[1],95%
same,CCL3 Average,[2],1.86
same,IL-1β Average,[3],1.46
same,IL-6 Average,[4],1.27
